Data reported in patent publication US8841310B2, “Combinations of a pyrimidine containing NNRTI with RT inhibitors” (Janssen R & D Ireland, priority 2003, dated 2014).
≈ marks a conversion by molar mass, not a printed value. Where “and” joins values, the source holds several entries; their conditions need not be identical. Equal values may be shown once. Read-outs that look alike come from different tables or passages of the source.

Experiments:
HIV-1 wild type = assay: MT-4 cell-based antiviral assay (viral cytopathicity, tetrazolium); details: Human immunodeficiency virus 1, MT4, wild type virus
Procedure: Compound E-TMC278 was tested in a cell-based assay, using natural host cells of HIV. MT-4 cells (a cell line of human T cells) were infected with HIV-1 (wild type or mutants) and exposed to different concentrations of antiviral compound in the presence of 10% fetal calf serum. Cytotoxicity was determined in parallel with the antiviral activity so that the selectivity of the antiviral effect could be assessed. Active compounds have to penetrate the cell membrane in order to interfere with replication steps inside the cell.
After four days of incubation at 37° C., the viability of the HIV and mock-infected cells was assessed by an automated tetrazolium-based calorimetric assay. This method enabled the calculation of both the 50% inhibitory concentration for inhibition of viral cytopathicity (IC50), the IC90, and the 50% cytotoxic concentration (CC50). The ratio CC50/IC50, also called the selectivity index, is an indication of the specificity of the antiviral effect. Tested HIV strains included: Wild type (wt) HIV-1; a panel of single and double mutants, obtained by site-directed mutagenesis (SDM), and a panel of clinical isolates, selected for resistance against NNRTIs.

[1] = Phase I single oral dose trials: safety, tolerability, pharmacokinetics; type: in vivo, human; details: for Cmax / half-life / Tmax: human, plasma; for half-life / Tmax: male
Procedure: Oral doses of 12.5, 25, and 50 mg were formulated in PEG 400 and taken with a standard meal.
There was a time interval of about 14 days between each dosing session

[2] = Cardiovascular and pulmonary safety in vitro; details: concentrations covering or exceeding the anti-viral concentration in vitro
[3] = single oral doses, healthy volunteers

Cc1cc(/C=C/C#N)cc(C)c1Nc1ccnc(Nc2ccc(C#N)cc2)n1 [E-TMC278, (E)-4-[[4-[[4-(2-cyanoethenyl)-2,6-dimethylphenyl]-amino]-2-pyrimidinyl]-amino]-benzonitrile]
IC90 (HIV-1 wild type): 1.3 nM and 0.00048 µg/mL
IC50 (HIV-1 wild type; read-out: IC50): 0.15 ng/mL (≈ 0.409 nM)
correlation coefficient for AUC0-48 hr (dose proportionality) ([1]; 12.5-200 mg): 0.9952
correlation coefficient for the 5 Cmax datapoints (dose proportionality) ([1]; 12.5-200 mg): 0.9897
Cmax ([1]; single oral dose 25 mg in PEG 400 with standard meal, healthy male volunteers): 149 ± 32 ng/mL
Cmax ([1]; single oral dose 50 mg in PEG 400 with standard meal, healthy male volunteers): 267 ± 27 ng/mL
Cmax ([1]; single oral dose 100 mg, healthy male subjects): 482 ± 121 ng/mL
Cmax ([1]; single oral dose 200 mg, healthy male subjects): 807 ± 207 ng/mL
half-life ([1]; across single oral doses, read-out: Half-life of plasma concentrations): 37 to 39 h
Tmax ([1]; single oral dose 12.5 mg): 4 h
half-life ([1]; single oral dose 12.5 mg, read-out: T1/2 (converted)): 37.1 h
Tmax ([1]; single oral dose 25 mg): 4 ± 1.3 h
half-life ([1]; single oral dose 25 mg, read-out: T1/2 (converted)): 38.7 h
Tmax ([1]; single oral dose 50 mg): 4 ± 1.3 h
half-life ([1]; single oral dose 50 mg, read-out: T1/2 (converted)): 45 ± 9 h
Tmax ([1]; single oral dose 100 mg): 4.3 ± 0.8 h
half-life ([1]; single oral dose 100 mg, read-out: T1/2 (converted)): 55 ± 18 h
Tmax ([1]; single oral dose 200 mg): 4.3 ± 0.8 h
Adverse effects [1, 3]: No relevant adverse effects
Tolerability [1, 3]: well tolerated
effect on cardiovascular and pulmonary parameters in vitro [2]: little or no effect
